Results reported in patent US20190151229A1, “USE OF AN ESSENTIAL OIL OF EVERLASTING FLOWER IN ORDER TO INCREASE OR RESTORE TACTILE PERCEPTION” (LABORATOIRES M&L, priority 2016, published 2019).

Tested on: human sensory neurons
Experiment: Effect on neurite growth in co-culture of human sensory neurons and keratinocytes
Assay type: cell-based
Details: NGF at 50 ng/ml, 6 days, vs control medium, p<0.05
Procedure: Sensory neurons are derived from iPS cells (induced Pluripotent Stem cells) which are themselves obtained from human fibroblasts. The iPSs were seeded into six-well plates coated with a thin layer of Matrigel® (Corning) in a proportion of 250 000 cells per well in a differentiation medium consisting of DMEM-F12 (Panbiotech) supplemented with 10% of Knockout Serum Replacement (KSR, Life technologies), 5 μM of CHIR 99021 (Tocris), 0.1 μM of retinoic acid (Sigma), 1 μg/ml of EPO (Erythropoietin; Peprotech), a cocktail of central differentiation pathway inhibitors and 1% of PS antibiotics (Penicilin-Streptomycin; Panbiotech). The cells were maintained in culture for 6 days at 37° C. and 5% CO2. The culture medium was changed every 2 days. Under these culture conditions, the iPSs differentiate into human sensory neurons.
At this stage, the cells were dissociated using accutase (Sigma Aldrich) for 10 minutes at 37° C. The reaction was stopped by adding culture medium. The cell suspension was centrifuged for 5 minutes at 1200 rpm. […]
Twenty photographs per culture well were taken with the automatic microscope (InCell 2000; GE Healthcare) at a ×20 magnification and the cell bodies of the sensory neurons were counted. […]

## NGF: reference molecule; nerve growth factor, naturally present in the epithelium, known to stimulate neurite extension in vitro
  increase in the length of the projections of the human sensory neurons: +22.8%
